Laboratory results as given in US8835392B2, “Mimetic peptides and the use thereof in the form of 20S, 26S and immunoproteasome inhibitors” (Technische Universität, priority 2005, dated 2014).
Entries after “also recorded” stand apart in the source; their conditions may differ. Where a SMILES comes first, the peptide text is derived from it. The star is where a group is joined. Cbz = O=C(OCc1ccccc1)*; OtBu = CC(C)(C)O*

Legend:
[1] = tested on: caspase 3/7 activation in HeLa-cells; test: Apoptosis-assay, caspase 3/7-activity (Apo-One); format: cell-based; details: 1 μM, 20 hours
Experimental: HeLa-cells that were cultivated for 20 hours in the presence of the given inhibitor, were subsequently incubated for 2 hours with caspase-substrate (Apo-One; Promega). The activation of caspases 3/7 was measured at 538 nm (excitation at 485 nm). Treatment of the cells with TNFα or with MG132 served as control.
For this, 10,000 HeLa-cells pro well were seeded in a 96-well-plate, and co-cultivated for 20 hours with 1 μM of the inhibitors 7, 8, 11, 13-16, 18, 20-23 and 25-28. The induction of apoptosis was determined by measuring of the caspase 3/7-activity (Apo-One®-Assay, Promega).

[2] = tested on: poly-ubiquitinylated proteins in HeLa-cells; test: Accumulation of poly-ubiquitinylated proteins, Western blot; format: cell-based; details: 1 μM for compound 15
Experimental: (§1) A, HeLa-cells were cultivated were 24 hours in the presence of the inhibitor. The protein concentration was determined in accordance with the cellular lysis according to Bradford in order to normalise the proteasomal activities to the different amounts of cells. Subsequently Complete (Roche) was added to all lysates, and the proteasomal activity was determined through the hydrolysis of Suc-LLVY-AMC. B, HeLa-cells was incubated with 1 μM of compound 15 for 2, 4, 6 and 24 hours. Cells were lysed, and proteins were separated through SDS-PAGE on a 10% gel, blotted to a PVDF-membrane. The accumulation of the poly-ubiquitinylated proteins was detected in a Western blot by an anti-ubiquitine-antibody (DAKO). C, HeLa-Cells were treated with increasing concentrations of the inhibitor 15, 25, 26, 27, and 28 for 24 hours (lane 1: without inhibitor; lane 2: 10 nM; lane 3: 100 nM and lane 4: 1 μM of the given inhibitor). Cells were lysed, proteins were separated on 15% gels, and the accumulation of the poly-ubiquitinylated proteins was controlled through Western blot.
A specific inhibition of the proteasome lead to an accumulation of poly-ubiquitinylated proteins. Indeed, the amount of poly-ubiquitinylated proteins increased during the incubation with the inhibitors. First effects were observed after 2 hours, for compound 15 (FIG. 6B) as well as for compounds 20, 22, 25 and 28 (data not shown).
50 μg of whole-cell-lysate were separated by SDS-PAGE, and blottet onto a PVDF-membrane (Millipore). The blots were blocked by means of a 5% milk-suspension. The poly-ubiquitinylated proteins were detected by anti-ubiquitin-antibody (DAKO), and anti-rabbit, POD-labelled, as a secondary antibody (DIANOVA), and visualized through ECL.

[3] = target: T1, 20S proteasome β5 chymotrypsin-like activity (Suc-LLVY-AMC) (Homo sapiens, UniProt P20618+P28074); test: Protease assay, chymotrypsin-like activity of isolated 20S proteasomes (LLVY substrate); format: biochemical; details: isolated 20S proteasome; LLVY-MCA 50 μM; 15 min pre-incubation; read-out: IC50 β5 Chymotrypsin-like (Y)
T1 construct: Proteasomes were isolated from red blood cells; from tissue; host or cells: red blood cells
Experimental: Proteasomes were isolated from red blood cells. Cells were lysed with DTT (1 mM), and the stroma-free supernatant was loaded on DEAE-sepharose (Toyopearls). Proteasome was eluted with an NaCl-gradient in TEAD (20 mM TrisCl pH 7.4, 1 mM EDTA, 1 mM azide, 1 mM DTT) of 100 to 300 mM NaCl. Proteasome was concentrated using ammonium sulfate-precipitation (between 40 and 70% saturation) and was separated in a 10-40% sucrose-gradient through centrifugation at 40.000 rpm for 16 hours (SW40; L7, Beckman & Coulter). Finally, the proteasomes were purified on a MonoQ-column and eluted with an NaCl-gradient at about 280 mM NaCl. The fractions containing purified proteasome were dialysed against 50 mM NaCl in TEAD and stored on ice. The purity was determined using SDS-PAGE.
Suc-LLVY-AMC, Z-VGR-AMC and LLE-AMC (BACHEM, Calbiochem) was used, in order to determine the chymotrypsin-like, trypsin-like or caspase-like (post-acidic)-activities of the proteasome. Substrate was incubated with proteasome at 37° C. in assay-buffer (20 mM Tris/Cl, pH 7.2, 1 mM EDTA, 1 mM DTT) for one hour. 100 ng proteasome was pre-incubated with 0.01-10 μM of the inhibitor for […]. The reaction was started by the addition of substrate (50 μM). The AMC as released was detected using fluorescence emission at 460 nm (excitation at 390 nm) using a TECAN-fluorimeter. The activity was calculated in fluorescence-units. The inhibition is depicted by IC50-values.
The chymotrypsin-like (Suc-LLVY-AMC), the trypsin-like (Bz-VGR-AMC), and the caspase-like (Z-LLE-AMC)-activities of 20S proteasomes were determined following incubation for one hour at 37° C.
The IC50-values form the inhibition of the proteasome were calculated at increasing concentrations of the inhibitor. The samples were pre-incubated for 15 min in ice. The assay was started through the addition of 50 μM of one of the following fluorogenic peptide substrates:
The release of MCA was determined at 460 nm emission (excitation 390 nm). The IC50-values as calculated for MG132 served as controls.

[4] = target: T2, proteasomal activity in HeLa-cells (Homo sapiens, UniProt P20618+P28074); test: Intracellular inhibition of proteasomes in cultivated HeLa-cells; format: cell-based; details: for reduction of the proteolytic activity in cells at 10 nM: HeLa cells; for membrane-permeation / stability during the incubation periods / proteasomal activity reduced to: cultivated cells; for proteasomal activity reduced to: remaining activity
T2 construct: endogenous in cells; host or cells: HeLa
Experimental: as §1
HeLa-Cells were cultivated in RPMI, supplemented with 10% FCS and penicillin/streptomycin, at 5% CO2. Inhibitors were administered from 100×-stock solutions (in DMSO) at the final concentrations as indicated, and incubated with the cells for at least 20 hours.
Cultivated cells (HeLa) were harvested lysed and with 0.1% NP40 in TEAD in the presence of the commercially available protease-inhibitor-mixture Complete (Roche). The proteasomal activity was measured in 10 μl of the lysate using Suc-LLVY-AMC as a substrate. The protein content was quantified by means of Bradford (Protein assay; BioRad).
An application on cell cultures or animals requires that the concentrations of the inhibitors are chose as low as required. The specific proteasomal activity was reduced to a value of below 50% in cells that were treated with 1 μM of the compounds 15, 22, 25, 26, or 28, respectively (FIG. 6A).

Structure (SMILES): CC(C)CC(C=O)NC(=O)C(CC(=O)OC(C)(C)C)NC(=O)C(CC(C)C)NC(=O)OCc1ccccc1 (stereo not drawn) [Compound 15, Z-Leu-Asp(O^tBu)Leu-CHO] (Cbz-Leu-Asp(OtBu)-Leu-aldehyde; configuration not given here)
- induction of apoptosis (activation of caspase 3 and 7) [1]: beginning apoptosis; also recorded: strong induction of apoptosis
- first effects on accumulation of poly-ubiquitinylated proteins observed after [2]: 2 h
- IC50 [3]: 58 nM
- reduction of the proteolytic activity in cells at 10 nM [4]: reduction of the proteolytic activity
- membrane-permeation [4]: able to penetrate cellular membranes; also recorded: membrane-permeation
- stability during the incubation periods [4]: sufficient stability
- proteasomal activity reduced to [4]: 10%

Structure (SMILES): CC(C)C[C@H](NC(=O)OCc1ccccc1)C(=O)N[C@@H](CC(C)C)C(=O)N[C@@H](CC(C)C)C(=O)C(=O)Nc1ccccc1 [Compound 28]
- induction of apoptosis (activation of caspase 3 and 7) [1]: beginning apoptosis; also recorded: strong induction of apoptosis
- first effects on accumulation of poly-ubiquitinylated proteins observed after [2]: 2 h
- IC50 [3]: 72 nM
- reduction of the proteolytic activity in cells at 10 nM [4]: reduction of the proteolytic activity
- membrane-permeation [4]: membrane-permeation
- stability during the incubation periods [4]: sufficient stability
- proteasomal activity reduced to [4]: 10%
